Assay [1] concerns the target Tyrosine-protein kinase SYK (Homo sapiens, UniProt P43405). The assay is described as follows: Selectivity interaction (KinomeScan (DiscoverX)) EUB0000666a SYK. The note with it: at 10 µM.
The target in assay [2] is Platelet-derived growth factor receptor alpha (Homo sapiens, UniProt P16234). As to the kind of experiment: Selectivity interaction (KinomeScan (DiscoverX)) EUB0000607a PDGFRA. To be noted: at 10 µM.
The target in assay [3] is T1, Serine/threonine-protein kinase ULK2 (Homo sapiens) (UniProt Q8IYT8).
T1 sequence (whole entry): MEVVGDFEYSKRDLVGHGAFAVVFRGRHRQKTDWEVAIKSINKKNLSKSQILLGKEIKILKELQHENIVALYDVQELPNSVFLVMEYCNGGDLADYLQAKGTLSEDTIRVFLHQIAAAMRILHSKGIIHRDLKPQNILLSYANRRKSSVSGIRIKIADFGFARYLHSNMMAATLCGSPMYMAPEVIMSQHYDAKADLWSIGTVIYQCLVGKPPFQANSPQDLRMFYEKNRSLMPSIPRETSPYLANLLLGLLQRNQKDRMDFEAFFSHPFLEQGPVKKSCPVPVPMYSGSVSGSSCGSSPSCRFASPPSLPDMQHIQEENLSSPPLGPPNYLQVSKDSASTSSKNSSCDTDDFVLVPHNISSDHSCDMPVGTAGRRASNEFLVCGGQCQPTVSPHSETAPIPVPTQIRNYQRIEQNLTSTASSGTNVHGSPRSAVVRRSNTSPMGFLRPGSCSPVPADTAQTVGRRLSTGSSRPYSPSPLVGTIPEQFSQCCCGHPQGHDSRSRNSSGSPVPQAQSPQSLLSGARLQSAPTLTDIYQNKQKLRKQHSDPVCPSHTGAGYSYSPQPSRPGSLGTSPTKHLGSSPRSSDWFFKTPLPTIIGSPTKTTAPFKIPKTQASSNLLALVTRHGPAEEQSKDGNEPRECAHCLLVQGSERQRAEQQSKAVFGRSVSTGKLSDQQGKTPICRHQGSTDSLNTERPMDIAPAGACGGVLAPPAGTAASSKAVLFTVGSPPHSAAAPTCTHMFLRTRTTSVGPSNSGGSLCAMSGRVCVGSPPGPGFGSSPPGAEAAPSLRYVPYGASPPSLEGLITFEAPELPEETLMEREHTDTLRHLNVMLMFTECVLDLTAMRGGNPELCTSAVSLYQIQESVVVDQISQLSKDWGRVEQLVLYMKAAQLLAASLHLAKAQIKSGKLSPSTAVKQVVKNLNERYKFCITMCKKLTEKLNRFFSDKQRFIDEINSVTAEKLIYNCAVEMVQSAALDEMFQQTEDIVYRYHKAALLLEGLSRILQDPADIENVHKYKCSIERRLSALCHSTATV
To be noted: at 10 µM.

Assay [4] deals with Serine/threonine-protein kinase WNK2 (Homo sapiens) (UniProt Q9Y3S1). The assay is described as follows: Selectivity interaction (ActivX KiNativ screen (kinase selectivity in THP-1 cell lysates)) EUB0000639a WNK2. It is filed as subcellular. The note with it: lysate, at 0.01 µM.
Sequence of Serine/threonine-protein kinase WNK2 (Homo sapiens) (Q9Y3S1 whole entry): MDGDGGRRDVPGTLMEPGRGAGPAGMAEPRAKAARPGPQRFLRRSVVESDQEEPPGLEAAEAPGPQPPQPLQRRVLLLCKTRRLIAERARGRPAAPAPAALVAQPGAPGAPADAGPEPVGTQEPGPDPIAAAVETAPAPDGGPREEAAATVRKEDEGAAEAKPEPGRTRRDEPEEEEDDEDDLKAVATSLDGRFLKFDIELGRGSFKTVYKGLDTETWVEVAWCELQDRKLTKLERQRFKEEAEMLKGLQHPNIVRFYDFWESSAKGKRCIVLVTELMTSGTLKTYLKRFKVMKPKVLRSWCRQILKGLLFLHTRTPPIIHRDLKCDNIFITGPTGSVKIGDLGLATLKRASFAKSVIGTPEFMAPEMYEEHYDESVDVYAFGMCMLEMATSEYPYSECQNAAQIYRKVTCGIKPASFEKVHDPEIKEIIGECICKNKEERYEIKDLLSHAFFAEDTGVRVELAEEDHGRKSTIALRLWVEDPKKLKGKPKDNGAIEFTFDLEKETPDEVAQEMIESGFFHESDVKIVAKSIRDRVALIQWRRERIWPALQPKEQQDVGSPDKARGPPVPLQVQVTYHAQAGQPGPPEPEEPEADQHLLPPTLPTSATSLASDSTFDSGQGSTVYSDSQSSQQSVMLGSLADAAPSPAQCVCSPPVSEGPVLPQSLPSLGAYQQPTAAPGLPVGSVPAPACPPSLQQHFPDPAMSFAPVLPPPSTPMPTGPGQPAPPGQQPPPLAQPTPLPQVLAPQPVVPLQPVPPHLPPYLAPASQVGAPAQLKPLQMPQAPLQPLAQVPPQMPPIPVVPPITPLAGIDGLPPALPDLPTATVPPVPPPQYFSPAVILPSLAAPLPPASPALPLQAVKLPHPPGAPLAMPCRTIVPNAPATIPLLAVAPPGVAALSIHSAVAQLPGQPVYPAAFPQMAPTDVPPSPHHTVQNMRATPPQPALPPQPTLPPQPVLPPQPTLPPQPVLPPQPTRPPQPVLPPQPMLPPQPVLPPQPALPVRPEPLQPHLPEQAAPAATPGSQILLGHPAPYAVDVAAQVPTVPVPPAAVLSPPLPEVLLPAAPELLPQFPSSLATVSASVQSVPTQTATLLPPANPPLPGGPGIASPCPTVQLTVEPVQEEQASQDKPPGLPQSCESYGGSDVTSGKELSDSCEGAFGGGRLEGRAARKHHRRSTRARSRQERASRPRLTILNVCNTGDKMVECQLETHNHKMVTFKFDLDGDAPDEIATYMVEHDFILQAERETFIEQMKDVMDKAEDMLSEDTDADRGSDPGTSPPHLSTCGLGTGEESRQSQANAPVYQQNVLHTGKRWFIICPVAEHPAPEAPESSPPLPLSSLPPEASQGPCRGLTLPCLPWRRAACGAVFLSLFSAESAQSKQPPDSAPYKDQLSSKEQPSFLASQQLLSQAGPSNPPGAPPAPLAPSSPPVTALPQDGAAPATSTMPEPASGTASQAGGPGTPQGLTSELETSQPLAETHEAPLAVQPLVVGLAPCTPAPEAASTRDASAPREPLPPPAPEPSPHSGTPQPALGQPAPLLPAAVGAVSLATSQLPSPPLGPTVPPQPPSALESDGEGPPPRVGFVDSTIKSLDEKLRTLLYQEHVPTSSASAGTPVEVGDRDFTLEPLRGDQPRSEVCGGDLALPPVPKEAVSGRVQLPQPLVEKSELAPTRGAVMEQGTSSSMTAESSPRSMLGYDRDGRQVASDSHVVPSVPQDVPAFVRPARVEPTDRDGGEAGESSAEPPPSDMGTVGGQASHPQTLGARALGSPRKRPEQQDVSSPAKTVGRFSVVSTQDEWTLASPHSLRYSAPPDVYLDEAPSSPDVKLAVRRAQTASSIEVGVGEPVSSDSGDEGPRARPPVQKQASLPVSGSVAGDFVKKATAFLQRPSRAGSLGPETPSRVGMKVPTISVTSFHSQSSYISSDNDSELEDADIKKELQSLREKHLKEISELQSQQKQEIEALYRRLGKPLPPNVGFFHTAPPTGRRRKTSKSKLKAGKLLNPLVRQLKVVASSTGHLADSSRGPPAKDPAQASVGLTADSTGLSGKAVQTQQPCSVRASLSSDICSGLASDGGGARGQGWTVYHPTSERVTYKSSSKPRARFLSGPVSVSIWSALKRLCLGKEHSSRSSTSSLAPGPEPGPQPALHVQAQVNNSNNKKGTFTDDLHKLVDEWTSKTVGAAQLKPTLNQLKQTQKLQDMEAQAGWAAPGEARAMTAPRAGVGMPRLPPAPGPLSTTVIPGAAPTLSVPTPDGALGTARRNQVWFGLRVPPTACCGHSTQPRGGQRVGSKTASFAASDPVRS
Assay [5] concerns the target Wee1-like protein kinase (Homo sapiens) (UniProt P30291). The assay is described as follows: Selectivity interaction (ActivX KiNativ screen (kinase selectivity in THP-1 cell lysates)) EUB0000639a WEE1. It is filed as subcellular. To be noted: lysate.
For assay [6], the target named is Serine/threonine-protein kinase tousled-like 2 (Homo sapiens) (UniProt Q86UE8). The assay is described as follows: Selectivity interaction (ActivX KiNativ screen (kinase selectivity in THP-1 cell lysates)) EUB0000639a TLK2. It is filed as subcellular. To be noted: lysate, at 0.01 µM.
Sequence of Serine/threonine-protein kinase tousled-like 2 (Homo sapiens) (Q86UE8 whole entry, looked up): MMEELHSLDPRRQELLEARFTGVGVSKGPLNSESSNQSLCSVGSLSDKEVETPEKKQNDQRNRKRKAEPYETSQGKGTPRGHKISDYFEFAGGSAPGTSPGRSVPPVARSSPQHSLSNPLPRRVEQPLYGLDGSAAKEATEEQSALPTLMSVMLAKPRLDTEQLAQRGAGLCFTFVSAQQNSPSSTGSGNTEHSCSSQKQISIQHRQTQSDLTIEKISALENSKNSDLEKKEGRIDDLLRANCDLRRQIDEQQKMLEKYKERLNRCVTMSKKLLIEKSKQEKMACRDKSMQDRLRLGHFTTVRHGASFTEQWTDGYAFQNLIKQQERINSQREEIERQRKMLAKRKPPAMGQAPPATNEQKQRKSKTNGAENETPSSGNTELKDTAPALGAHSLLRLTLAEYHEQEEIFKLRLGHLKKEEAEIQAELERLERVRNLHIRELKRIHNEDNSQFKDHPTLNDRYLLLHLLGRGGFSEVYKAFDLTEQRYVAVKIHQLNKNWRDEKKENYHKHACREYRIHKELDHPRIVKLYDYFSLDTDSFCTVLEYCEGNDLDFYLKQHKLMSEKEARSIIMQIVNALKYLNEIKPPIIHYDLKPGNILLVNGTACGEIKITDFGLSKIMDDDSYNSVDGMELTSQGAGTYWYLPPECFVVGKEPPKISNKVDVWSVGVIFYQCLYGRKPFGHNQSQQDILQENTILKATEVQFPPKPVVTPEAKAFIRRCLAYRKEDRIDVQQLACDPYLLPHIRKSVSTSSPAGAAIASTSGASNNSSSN
Assay [7] deals with Tyrosine-protein kinase receptor UFO (Homo sapiens) (UniProt P30530). As to the kind of experiment: Selectivity interaction (Upstate Kinase Profiler service (Millipore)) EUB0000056c AXL. The note with it: at 1 µM.
Sequence of Tyrosine-protein kinase receptor UFO (Homo sapiens) (P30530 whole entry): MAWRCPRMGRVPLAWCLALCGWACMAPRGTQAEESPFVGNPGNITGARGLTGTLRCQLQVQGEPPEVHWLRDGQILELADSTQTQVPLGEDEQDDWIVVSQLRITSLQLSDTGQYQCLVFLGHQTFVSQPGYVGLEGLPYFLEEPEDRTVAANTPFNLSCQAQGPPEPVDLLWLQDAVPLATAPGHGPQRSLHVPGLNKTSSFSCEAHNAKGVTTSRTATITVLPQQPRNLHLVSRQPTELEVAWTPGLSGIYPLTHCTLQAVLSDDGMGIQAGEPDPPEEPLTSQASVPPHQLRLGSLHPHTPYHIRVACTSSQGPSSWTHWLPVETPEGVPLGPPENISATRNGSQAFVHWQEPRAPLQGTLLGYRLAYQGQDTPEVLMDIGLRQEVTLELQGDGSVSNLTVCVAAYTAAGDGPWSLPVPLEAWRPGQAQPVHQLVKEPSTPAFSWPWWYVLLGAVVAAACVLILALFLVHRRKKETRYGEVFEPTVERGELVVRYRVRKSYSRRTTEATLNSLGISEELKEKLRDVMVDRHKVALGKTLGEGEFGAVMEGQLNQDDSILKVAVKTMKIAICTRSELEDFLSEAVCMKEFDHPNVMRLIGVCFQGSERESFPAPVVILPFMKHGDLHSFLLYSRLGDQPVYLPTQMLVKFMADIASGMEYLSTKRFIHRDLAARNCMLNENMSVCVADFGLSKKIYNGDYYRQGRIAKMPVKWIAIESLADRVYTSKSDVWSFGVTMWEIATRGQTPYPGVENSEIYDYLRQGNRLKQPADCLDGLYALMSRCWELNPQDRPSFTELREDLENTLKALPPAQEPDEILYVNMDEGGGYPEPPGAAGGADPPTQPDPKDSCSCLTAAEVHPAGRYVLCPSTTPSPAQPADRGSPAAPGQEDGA
Assay [8] deals with T2, Myosin light chain kinase family member 4 (Homo sapiens) (UniProt Q86YV6).
T2 sequence (whole entry): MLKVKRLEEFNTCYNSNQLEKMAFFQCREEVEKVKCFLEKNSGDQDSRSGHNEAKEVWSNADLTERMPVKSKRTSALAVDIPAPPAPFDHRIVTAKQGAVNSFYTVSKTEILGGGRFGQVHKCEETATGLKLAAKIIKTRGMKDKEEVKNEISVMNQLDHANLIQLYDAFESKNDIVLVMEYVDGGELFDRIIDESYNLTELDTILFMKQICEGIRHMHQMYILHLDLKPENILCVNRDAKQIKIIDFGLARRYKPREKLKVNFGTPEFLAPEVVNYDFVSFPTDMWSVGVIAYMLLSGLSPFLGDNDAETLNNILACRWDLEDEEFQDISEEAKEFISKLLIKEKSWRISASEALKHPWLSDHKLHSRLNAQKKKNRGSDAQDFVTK
As to the kind of experiment: Selectivity interaction (KinomeScan (DiscoverX)) EUB0000655a MYLK4. The note with it: at 10 µM.

Sequence of Wee1-like protein kinase (Homo sapiens) (P30291 whole entry, looked up): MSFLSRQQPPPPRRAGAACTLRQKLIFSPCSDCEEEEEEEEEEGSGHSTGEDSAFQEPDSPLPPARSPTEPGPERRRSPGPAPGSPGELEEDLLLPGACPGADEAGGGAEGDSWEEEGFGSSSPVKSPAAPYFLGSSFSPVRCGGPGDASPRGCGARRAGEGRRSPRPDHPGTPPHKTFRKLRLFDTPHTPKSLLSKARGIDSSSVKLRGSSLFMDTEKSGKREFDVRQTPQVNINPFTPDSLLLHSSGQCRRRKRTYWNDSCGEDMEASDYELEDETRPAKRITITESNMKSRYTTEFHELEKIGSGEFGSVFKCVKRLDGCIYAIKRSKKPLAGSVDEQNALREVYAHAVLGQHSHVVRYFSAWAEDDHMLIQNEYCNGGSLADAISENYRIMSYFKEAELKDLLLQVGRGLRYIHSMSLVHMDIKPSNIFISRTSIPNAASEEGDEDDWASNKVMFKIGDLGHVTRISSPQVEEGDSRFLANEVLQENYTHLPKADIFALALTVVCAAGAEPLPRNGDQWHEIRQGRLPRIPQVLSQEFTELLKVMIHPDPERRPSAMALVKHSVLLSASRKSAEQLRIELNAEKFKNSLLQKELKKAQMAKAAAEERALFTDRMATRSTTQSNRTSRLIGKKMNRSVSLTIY

For `O=C(NOC[C@H](O)CO)c1ccc(F)c(F)c1Nc1ccc(I)cc1F`, the % of control in assay [1] stood at 100%.

In assay [2], `CNC(=O)Nc1ccc(-c2nc(N3CC4CCC(C3)O4)c3cnn(C4CCC5(CC4)OCCO5)c3n2)cc1` had a % of control of 80%.

In assay [3], `Cc1cc([C@@H](C)Nc2ccccc2C(=O)O)c2nc(N3CCOCC3)cc(=O)n2c1` [AZD-6482] returned a % of control of 100%.

With `CC[C@@H]1[C@H](F)C(=O)N[C@@H]1COc1nccc2cc(C(N)=O)c(OC)cc12` [ZIMLOVISERTIB], the % of inhibition was 3.3% in assay [4]; 25.6% in assay [5] (at 0.01 µM); -1.5% in assay [5] (at 0.04 µM); 3.2% in assay [5] (at 0.2 µM); -5.7% in assay [5] (at 1 µM); 35.6% in assay [5] (at 5 µM). Moreover, the % of inhibition in assay [6] was found to be 0.7%.

As for `Cc1ccc(-c2ccc3c(ccc4sc5c(c43)NC[C@@H](C)NC5=O)n2)cn1`, in assay [7], the % of inhibition amounted to 58%.

Regarding `CN(C)CCOc1ccc(-c2nc(-c3ccncc3)c(-c3ccc4c(c3)CC/C4=N\O)[nH]2)cc1`, the % of control in assay [8] was found to be 98%.

The values are drawn from ChEMBL document CHEMBL5465560, “Selectivity Literature for EUbOPEN Chemogenomic Library” (2024).
